Tests used:
[1] = test system: CUMS depression model mice; test: Forced swimming test in CUMS depression model mice; type: in vivo, C57BL/6J mice; settings: for forced swimming test, depressive symptoms / immobility time: 14th day, in words; for immobility time in the forced swimming test: 28 days
Text: (§1) After one week of adaptive feeding, the newly purchased mice were divided into a blank group and CUMS model group. The mice in the blank group were not subjected to behavioral intervention and were fed normally. Mice in the model group were given 1-2 unpredictable behavioral stimuli every day. […] When the same stimulation is continuous, the stimulation method is changed to ensure that the same stimulation is not continuous, and the model construction period is 42 days.

[2] = test system: BV2 cells; test: ROS detection (DCFH-DA) in LPS-induced BV2 cells; type: cell-based; settings: 10, 5 and 1 μM with LPS, in words
Text: When the body is in a long-term stress and stress state, a large number of oxidizing substances and inflammatory factors accumulate in the body, causing depression and inducing depression-like symptoms. LPS is a pro-inflammatory substance, which can induce the increase of inflammatory factors, the accumulation of reactive oxygen species ROS and the release of NO in BV2 cells. The anti-inflammatory and antioxidant effects of drugs can be evaluated by establishing an LPS stress model.
ROS detection: The fluorescent dye probe DCFH-DA can freely pass through the BV2 cell membrane, and the dye entering the cell is enzymatically hydrolyzed to DCFH, at this time, it can no longer pass through the cell membrane. The intracellular ROS can oxidize DCFH to DCF with fluorescence, which can reflect the ROS content by detecting the fluorescence intensity of DCF. The specific operation is as follows: when BV2 cells grew to the logarithmic growth phase, they were inoculated in a 6-well plate at 1×10^6 cells/well and cultured for 24 h. […] After the cells were co-cultured with compound CAK06 for 12 h, the cells were stained according to the instructions of the ROS detection kit, and photographed and analyzed by an inverted fluorescence microscope.

[3] = test system: PC12 cells; test: Inhibition of H2O2-induced oxidative damage in PC12 cells; type: cell-based, rat
Method: After 24 hours of incubation in the incubator, the relative proliferation rates of the cells were calculated according to the method under Section 2.1.

[4] = test system: CUMS depression model mice; test: Sucrose preference test in CUMS depression model mice; type: in vivo, C57BL/6J mice
Text: as §1

COc1cc(/C=C2\CNC/C(=C\c3cc(Cl)c(O)c(OC)c3)C2=O)cc(Cl)c1O [CAK06, 3,5-bis ((E)-3-chloro-4-hydroxy-5-methoxybenzylidene) piperidin-4-one]
forced swimming test, depressive symptoms / immobility time ([1]; 10 mg/kg oral once a day): significant reduction in immobility time | immobility time in the forced swimming test ([1]; 10 mg/kg oral once a day): 114.86 ± 84.07 s | forced swimming test, depressive symptoms / immobility time ([1]; 20 mg/kg oral once a day): stronger antidepressant effect | immobility time in the forced swimming test ([1]; 20 mg/kg oral once a day): 54.44 ± 53.38 s | ROS fluorescence intensity [2]: decreased in a concentration-dependent manner | cell proliferation rate ([3]; 60 μM drug with 585.8 μM H2O2, 24 h): 73.91±0.69% | effect on survival of H2O2-damaged PC12 cells ([3]; 3.75-60 μM drug, 24 h, in words): time-dependent and concentration-dependent cell protection | sucrose preference rate ([4]; 10 mg/kg oral once a day, 14th day, in words): failed to significantly increase the sucrose preference rate | sucrose preference rate ([4]; 10 mg/kg oral once a day, 28 days, model 61.36±2.18%): 70.62±2.33% | sucrose preference rate ([4]; 20 mg/kg oral once a day, 14th day, in words): significant increase | sucrose preference rate ([4]; 20 mg/kg oral once a day, 28 days, model 61.36±2.18%): 77.42±2.77%

From patent US20250289786A1, “CHLORINATED MONOCARBONYL CURCUMIN COMPOUNDS, PREPARATION METHOD, AND APPLICATION” (Southwest Medical University, priority 2024, published 2025)
